Experimental data: ChEMBL document CHEMBL3886673, “Tetracyclic CDK9 kinase inhibitors” (2016)

Biological target: Cyclin-dependent kinase 9 (Homo sapiens, UniProt P50750)
Experiment: LANCE ULight TR-FRET Kinase Assay : CDK9 enzyme activities were measured using LANCE ULight TR-FRET kinase assay reagents (PerkinElmer, Waltham, Mass.). Compounds were diluted in 100% DMSO then diluted with 1:10 in serine/threonine kinase assay buffer containing 20 mM HEPES, 10 mM MgCl2, 100 mM Na3VO4, and 0.0075% Triton X-100. Equal volume of the compound dilutions was added to a final reaction mixture containing LANCE detection buffer (PerkinElmer CR97-100), 100 nM ULight MBP (PerkinElmer TRF0109M), 1000 μM ATP, and CDK9/Cyclin T1 (Carna Biosciences 04-110). The kinase reaction was carried out for 1 hour before addition of stopping buffer to a final of 20 mM EDTA and 0.5 nM of LANCE Ultra Europium anti-phospho-MBP antibody (PerkinElmer TRF0201M) in LANCE detection buffer. The reaction was incubated for 1 hour and the signal was read in Envision in TR-FRET mode (excitation at 320 nm and emission at 615/665 nm).

Cyclin-dependent kinase 9, sequence (P50750 whole entry): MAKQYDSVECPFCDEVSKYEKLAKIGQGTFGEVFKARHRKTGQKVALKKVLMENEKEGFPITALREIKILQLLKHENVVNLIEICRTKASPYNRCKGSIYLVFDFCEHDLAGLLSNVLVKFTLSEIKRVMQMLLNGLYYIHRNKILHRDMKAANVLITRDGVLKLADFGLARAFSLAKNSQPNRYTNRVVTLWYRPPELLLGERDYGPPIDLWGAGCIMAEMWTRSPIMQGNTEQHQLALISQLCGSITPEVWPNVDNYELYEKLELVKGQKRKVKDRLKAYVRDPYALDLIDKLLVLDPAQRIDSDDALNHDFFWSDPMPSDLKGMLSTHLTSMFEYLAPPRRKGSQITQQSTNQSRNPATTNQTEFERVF

Structure (SMILES)	IC50
CN(CCO)C(=O)CN1CC=C(c2[nH]c3ncc(F)c4c3c2CN(C)c2ccc(F)cc2-4)CC1	100 nM
CN1Cc2c(C3=CCN(S(C)(=O)=O)CC3)[nH]c3ncc(F)c(c23)-c2cc(F)ccc21	38 nM
CN1Cc2c(C3=CCN(C(=O)OC(C)(C)C)CC3)[nH]c3nccc(c23)-c2cc(F)ccc21	230 nM
CNC(=O)N1CC=C(c2[nH]c3nccc4c3c2CN(C)c2ccc(F)cc2-4)CC1	30 nM
